Data published in patent publication US7060444B1, “Zone 3 necrosis associated markers and method of use thereof” (CuraGen Corporation, priority 2002, dated 2006).
Where two headings read alike, the source gives them in different places.

What was measured:
rat livers [1] = tested on: rat livers
Source text: (§1) Each compound was delivered orally on a daily basis at a high dose (tox dose) and a 1/10 low dose (mode dose) for up to 14 days. Five male rats/dose/time were randomly assigned to sacrifice on days 1, 3, 7, and 14.
(§2) In order to construct in vivo models, the pathology of each sample had to be determined. Pathology was assigned to each liver sample by the pathologists at Bayer's Stillwell, Kans. facility. Criteria for inclusion of a compound into a particular mode included the following: • i.

liver [2] = details: once converted to reactive metabolites; cited from earlier work
rat livers [3] = assay: Induction of Zone 3 Necrosis in vivo, liver pathology annotation; details: for Zone 3 Necrosis in vivo: Pathology Present: sampled 1, 3, 7, 14 d
Source text: as §1, §2

liver [4] = assay: In vivo pathology annotation: Hypertrophy; parameters: species or system rat; details: in vivo compound annotation
Source text: Hypertrophy: Increase in cell size and liver weight. • iv. […] Steatosis: Increase in lipid accumulation or “vacuolar degeneration.” • vii. […] Two approaches were used.

liver [5] = details: rats, through a sequence of events that begin with necrosis; cited from earlier work
[6] = rat primary hepatocytes, 250 microM
[7] = rat primary hepatocytes, 100 microM
[8] = rat primary hepatocytes, 40 microM
[9] = rat primary hepatocytes, 20 microM
[10] = rat primary hepatocytes, 1000 microM
[11] = rat primary hepatocytes, 2 microM
[12] = rat primary hepatocytes, 50 microM

Brc1cccc(Br)c1 [1,3-Dibromobenzene]
Zone 3 Necrosis in vivo: Pathology Present (rat livers [1]; male): 1 d
Zone 3 Necrosis Pathology (Rat primary hepatocytes; [6]): Present

Clc1ccc(Cl)cc1 [1,4-dichlorobenzene]
Zone 3 Necrosis Pathology (Rat primary hepatocytes; [7]): Absent

Cc1cc(N=Nc2ccccc2)ccc1N(C)C [3-methyl-4-(dimethylamino)azobenzene]
Zone 3 Necrosis Pathology (Rat primary hepatocytes; rat primary hepatocytes, 1.6 microM): Absent

Cc1ccc2cc3c(ccc4ccccc43)c3c2c1CC3 [3-methylcholanthrene]
Zone 3 Necrosis Pathology (Rat primary hepatocytes; [8]): Absent

CC(=O)Nc1ccc(O)cc1 [Acetaminophen]
zonal necrosis of the liver produced (liver [2]): produce mainly zone 3 necrosis

CC(=O)Oc1ccccc1C(=O)O [Aspirin]
Zone 3 Necrosis Pathology (Rat primary hepatocytes; rat primary hepatocytes, 55.5 microM): Absent

[N-]=[N+]=CC(=O)OC[C@H](N)C(=O)O [Azaserine]
Zone 3 Necrosis Pathology (Rat primary hepatocytes; rat primary hepatocytes, 500 microM): Present
Zone 3 Necrosis in vivo: Pathology Present (rat livers [3]; High 100 mg/kg (ip)): 1,3 d

CC[N+](C)(C)Cc1ccccc1Br [Bretylium]
Zone 3 Necrosis Pathology (Rat primary hepatocytes): Absent

Brc1ccccc1 [Bromobenzene]
Zone 3 Necrosis in vivo: Pathology Present (rat livers [1]; male): 12, 48 h
Zone 3 Necrosis Pathology (Rat primary hepatocytes; rat primary hepatocytes, 3000 microM): Present

ClC(Cl)(Cl)Cl [CCl4, carbon tetrachloride]
zonal necrosis of the liver produced (liver [2]): produce mainly zone 3 necrosis

CO/N=C(\C(=O)N[C@@H]1C(=O)N2C(C(=O)O)=C(COC(N)=O)CS[C@H]12)c1ccco1 [Cefuroxime]
Zone 3 Necrosis Pathology (Rat primary hepatocytes; rat primary hepatocytes, 224 microM): Absent

[Ce+3].[Cl-].[Cl-].[Cl-] [Cerium (III) Chloride]
Zone 3 Necrosis Pathology (Rat primary hepatocytes; [9]): Present

ClC1=C(Cl)C2(Cl)C3C(Cl)C(Cl)CC3C1(Cl)C2(Cl)Cl (stereo not shown) [Chlordane]
Zone 3 Necrosis Pathology (Rat primary hepatocytes; rat primary hepatocytes, 8 microM): Absent

CCOC(=O)C(C)(C)Oc1ccc(Cl)cc1 [Clofibrate]
hypertrophy in vivo (liver [4]): produced hypertrophy in vivo
Zone 3 Necrosis Pathology (Rat primary hepatocytes; [7]): Absent

Clc1cccc(Cl)c1N=C1NCCN1 [Clonidine]
Zone 3 Necrosis Pathology (Rat primary hepatocytes): Absent

O=c1ccc2ccccc2o1 [Coumarin]
Zone 3 Necrosis Pathology (Rat primary hepatocytes; [6]): Present
Zone 3 Necrosis in vivo: Pathology Present (rat livers [3]; High 150 mg/kg/d): 3 d

C[C@@H]1C[C@H]2[C@@H]3CCC4=CC(=O)C=C[C@]4(C)[C@@]3(F)[C@@H](O)C[C@]2(C)[C@@]1(O)C(=O)CO [Dexamethasone]
Zone 3 Necrosis Pathology (Rat primary hepatocytes): Absent

CCN(CC)N=O [Diethylnitrosamine]
Zone 3 Necrosis in vivo: Pathology Present (rat livers [1]): 1, 3, 7 d
Zone 3 Necrosis Pathology (Rat primary hepatocytes; rat primary hepatocytes, 300 microM): Present
hepatocellular carcinoma (liver [5]): show evidence of producing hepatocellular carcinoma in rats

CN(C)C=O [Dimethylformamide]
Zone 3 Necrosis in vivo: Pathology Present (rat livers [1]; male): 48 h
Zone 3 Necrosis Pathology (Rat primary hepatocytes; rat primary hepatocytes, 5000 microM): Present

CN(C)N=O [Dimethylnitrosamine]
Zone 3 Necrosis in vivo: Pathology Present (rat livers [1]): 7, 14 d
Zone 3 Necrosis Pathology (Rat primary hepatocytes; [10]): Present

c1cc[n+]2c(c1)-c1cccc[n+]1CC2 [Diquat]
Zone 3 Necrosis in vivo: Pathology Absent (rat livers [1]; male): 6, 12, 24, 48 h

CC(C)N(CCC(C(N)=O)(c1ccccc1)c1ccccn1)C(C)C (stereo not shown) [Disopyramide]
Zone 3 Necrosis Pathology (Rat primary hepatocytes; rat primary hepatocytes, 3 microM): Absent

COc1cccc2c1C(=O)c1c(O)c3c(c(O)c1C2=O)C[C@@](O)(C(=O)CO)C[C@@H]3O[C@H]1C[C@H](N)[C@H](O)[C@H](C)O1 [Doxorubicin]
Zone 3 Necrosis Pathology (Rat primary hepatocytes): Absent

CCC(=O)O[C@H]1[C@H](O[C@@H]2[C@@H](C)[C@H](O[C@H]3C[C@@](C)(OC)[C@@H](O)[C@H](C)O3)[C@@H](C)C(=O)O[C@H](CC)[C@@](C)(O)[C@H](O)[C@@H](C)C(=O)[C@H](C)C[C@@]2(C)O)O[C@H](C)C[C@@H]1N(C)C.CCCCCCCCCCCCOS(=O)(=O)O [Erythromycin Estolate (EE), Erythromycin Estolate]
Zone 3 Necrosis Pathology (Rat primary hepatocytes; [9]): Absent

CCO [Ethanol]
Zone 3 Necrosis Pathology (Rat primary hepatocytes): Absent

CCSCC[C@H](N)C(=O)O [Ethionine]
Zone 3 Necrosis Pathology (Rat primary hepatocytes; [10]): Present

CCC1(C)CC(=O)NC1=O (stereo not shown) [Ethosuximide]
Zone 3 Necrosis Pathology (Rat primary hepatocytes; [10]): Absent

OC(c1ccc(Cl)cc1)(c1cncnc1)c1ccccc1Cl (stereo not shown) [Fenarimol]
Zone 3 Necrosis Pathology (Rat primary hepatocytes; [9]): Absent

OC(Cn1cncn1)(Cn1cncn1)c1ccc(F)cc1F [Fluconazole]
Zone 3 Necrosis Pathology (Rat primary hepatocytes): Absent

CCCC[C@@H](C)[C@@H](OC(=O)C[C@@H](CC(=O)O)C(=O)O)[C@H](C[C@@H](C)C[C@H](O)CCCC[C@@H](O)C[C@H](O)[C@H](C)N)OC(=O)C[C@@H](CC(=O)O)C(=O)O [Fumonisin B(1)]
hepatocellular carcinoma (liver [5]): show evidence of producing hepatocellular carcinoma in rats

NCC1(CC(=O)O)CCCCC1 [Gabapentin]
Zone 3 Necrosis Pathology (Rat primary hepatocytes; [11]): Absent

CC(C)Cc1ccc(C(C)C(=O)O)cc1 (stereo not shown) [Ibuprofen]
Zone 3 Necrosis Pathology (Rat primary hepatocytes; [12]): Absent

CC(=O)N1CCN(c2ccc(OCC3COC(Cn4ccnc4)(c4ccc(Cl)cc4Cl)O3)cc2)CC1 (stereo not shown) [Ketoconazole]
Zone 3 Necrosis Pathology (Rat primary hepatocytes; [11]): Absent
Zone 3 Necrosis in vivo: Pathology Absent (rat livers [3]; male, liver, oral, 10 mg/kg/d): 1, 3 d

CCC1(c2ccccc2)NC(=O)N(C)C1=O (stereo not shown) [Mephenytoin]
Zone 3 Necrosis Pathology (Rat primary hepatocytes; rat primary hepatocytes, 14.2 microM): Absent

Nc1cc(N2CCCCC2)nc(N)[n+]1[O-] [Minoxidil]
Zone 3 Necrosis Pathology (Rat primary hepatocytes; rat primary hepatocytes, 0.166 microM): Absent

ClC1(Cl)C2(Cl)C3(Cl)C4(Cl)C(Cl)(Cl)C5(Cl)C3(Cl)C1(Cl)C5(Cl)C24Cl (stereo not shown) [Mirex]
Zone 3 Necrosis Pathology (Rat primary hepatocytes; [12]): Absent

[Mo] [Molybdenum]
Zone 3 Necrosis Pathology (Rat primary hepatocytes; [12]): Present
Zone 3 Necrosis in vivo: Pathology Present (rat livers [3]; High 500 mg/kg/d): 3 d

C[C@H]1C(=O)O[C@@H]2CCN3CC=C(COC(=O)[C@](C)(O)[C@]1(C)O)[C@H]23 [Monocrotaline]
Zone 3 Necrosis Pathology (Rat primary hepatocytes; [7]): Present

O=NN1CCCCC1 [N-Nitrosopiperidine]
Zone 3 Necrosis Pathology (Rat primary hepatocytes; rat primary hepatocytes, 3200 microM): Present

CCCCN(CCCC)N=O [N-nitrosodibutylamine]
Zone 3 Necrosis Pathology (Rat primary hepatocytes; rat primary hepatocytes, 200 microM): Absent

O=NN1CCOCC1 [N-nitrosomorpholine]
Zone 3 Necrosis Pathology (Rat primary hepatocytes; rat primary hepatocytes, 3750 microM): Present

O=NN(CCO)CCO [Nitrosodiethanolamine]
Zone 3 Necrosis Pathology (Rat primary hepatocytes; [10]): Absent

Oc1c(Cl)c(Cl)c(Cl)c(Cl)c1Cl [Pentachlorophenol]
Zone 3 Necrosis Pathology (Rat primary hepatocytes; rat primary hepatocytes, 19 microM): Absent

COc1cc2nc(N3CCN(C(=O)c4ccco4)CC3)nc(N)c2cc1OC [Prazosin]
Zone 3 Necrosis Pathology (Rat primary hepatocytes): Absent

CC(=O)[C@H]1CC[C@H]2[C@@H]3CC=C4C[C@@H](O)CC[C@]4(C)[C@H]3CC[C@]12C [Pregnenolone]
Zone 3 Necrosis Pathology (Rat primary hepatocytes; rat primary hepatocytes, 38 microM): Absent

c1ccncc1 [Pyridine]
Zone 3 Necrosis in vivo: Pathology Present (rat livers [1]; male): 14 d
Zone 3 Necrosis Pathology (Rat primary hepatocytes): Present

CO[C@H]1/C=C/O[C@@]2(C)Oc3c(C)c(O)c4c(O)c(c(/C=N/N5CCN(C)CC5)c(O)c4c3C2=O)NC(=O)/C(C)=C\C=C\[C@H](C)[C@H](O)[C@@H](C)[C@@H](O)[C@@H](C)[C@H](OC(C)=O)[C@@H]1C [Rifampicin]
Zone 3 Necrosis Pathology (Rat primary hepatocytes): Absent

CC(=N)S [Thioacetamide]
Zone 3 Necrosis Pathology (Rat primary hepatocytes; rat primary hepatocytes, 2000 microM): Present

NC(=S)c1ccccc1 [Thiobenzamide]
Zone 3 Necrosis Pathology (Rat primary hepatocytes; [8]): Present
